Test results reported in PubChem BioAssay (NCI).
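Five concentrations, 48 hours, 96-well plates. Abbreviation: GI50, concentration required for 50% inhibition of growth. TGI: total growth inhibition.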

Columns and labels:
Experiment in all cases: NCI anticancer screen, dose series, 48 h
UACC-257 melanoma = tested on: UACC-257 melanoma
CCRF-CEM leukemia = tested on: CCRF-CEM leukemia
RXF 393 renal = tested on: RXF 393 renal
HCT-15 colon = tested on: HCT-15 colon
HL-60(TB) leukemia = tested on: HL-60(TB) leukemia
UO-31 renal = tested on: UO-31 renal
NCI-H522 lung = tested on: NCI-H522 lung
CAKI-1 renal = tested on: CAKI-1 renal
A549 NSCLC = tested on: A549 NSCLC
OVCAR-5 ovarian = tested on: OVCAR-5 ovarian
LOX IMVI melanoma = tested on: LOX IMVI melanoma
HCC-2998 colon = tested on: HCC-2998 colon
A498 renal = tested on: A498 renal
MALME-3M melanoma = tested on: MALME-3M melanoma
OVCAR-8 ovarian = tested on: OVCAR-8 ovarian
SF-268 CNS = tested on: SF-268 CNS
NCI-H226 lung = tested on: NCI-H226 lung
SK-MEL-28 melanoma = tested on: SK-MEL-28 melanoma
HOP-62 NSCLC = tested on: HOP-62 NSCLC
COLO 205 colon = tested on: COLO 205 colon
DU-145 prostate = tested on: DU-145 prostate
SW-620 colon = tested on: SW-620 colon
SN12C renal = tested on: SN12C renal
NCI/ADR-RES ovarian = tested on: NCI/ADR-RES ovarian
SK-MEL-2 melanoma = tested on: SK-MEL-2 melanoma
U251 CNS = tested on: U251 CNS
BT-549 breast = tested on: BT-549 breast

Structure (SMILES): COc1ccc(-c2nc(-c3nc4ccc(F)cc4[nH]3)cc3c2[nH]c2ccccc23)cc1
- GI50 (UACC-257 melanoma): 2.01 µM
- TGI (UACC-257 melanoma): 4.8 µM
- GI50 (CCRF-CEM leukemia): 2.29 µM
- TGI (CCRF-CEM leukemia): 25.6 µM
- GI50 (RXF 393 renal): 1.72 µM
- TGI (RXF 393 renal): 4.55 µM
- GI50 (HCT-15 colon): 2.82 µM
- TGI (HCT-15 colon): > 100 µM
- GI50 (HL-60(TB) leukemia): 2.83 µM
- TGI (HL-60(TB) leukemia): 7.23 µM
- GI50 (UO-31 renal): 2.54 µM
- TGI (UO-31 renal): 8.74 µM
- GI50 (NCI-H522 lung): 2 µM
- TGI (NCI-H522 lung): 5.97 µM
- GI50 (CAKI-1 renal): 3.87 µM
- TGI (CAKI-1 renal): > 100 µM
- GI50 (A549 NSCLC): 2.21 µM
- TGI (A549 NSCLC): 7.5 µM
- GI50 (OVCAR-5 ovarian): 4.46 µM
- TGI (OVCAR-5 ovarian): > 100 µM
- GI50 (LOX IMVI melanoma): 2.22 µM
- TGI (LOX IMVI melanoma): 5.31 µM
- GI50 (HCC-2998 colon): 3.71 µM
- TGI (HCC-2998 colon): 26.2 µM
- GI50 (A498 renal): 1.92 µM
- TGI (A498 renal): 9.7 µM
- GI50 (MALME-3M melanoma): 2.33 µM
- TGI (MALME-3M melanoma): 8.99 µM
- GI50 (OVCAR-8 ovarian): 1.78 µM
- TGI (OVCAR-8 ovarian): 6.69 µM
- GI50 (SF-268 CNS): 3.24 µM
- TGI (SF-268 CNS): > 100 µM
- GI50 (NCI-H226 lung): 3.12 µM
- TGI (NCI-H226 lung): > 100 µM
- GI50 (SK-MEL-28 melanoma): 3.4 µM
- TGI (SK-MEL-28 melanoma): > 100 µM
- GI50 (HOP-62 NSCLC): 3.22 µM
- TGI (HOP-62 NSCLC): 74.7 µM
- GI50 (COLO 205 colon): 2.1 µM
- TGI (COLO 205 colon): 4.71 µM
- GI50 (DU-145 prostate): 2.99 µM
- TGI (DU-145 prostate): 9.65 µM
- GI50 (SW-620 colon): 3.73 µM
- TGI (SW-620 colon): > 100 µM
- GI50 (SN12C renal): 2.97 µM
- TGI (SN12C renal): > 100 µM
- GI50 (NCI/ADR-RES ovarian): 2.77 µM
- TGI (NCI/ADR-RES ovarian): > 100 µM
- GI50 (SK-MEL-2 melanoma): 2.11 µM
- TGI (SK-MEL-2 melanoma): 4.45 µM
- GI50 (U251 CNS): 2.42 µM
- TGI (U251 CNS): 7.26 µM
- GI50 (BT-549 breast): 3.18 µM
- TGI (BT-549 breast): 9.72 µM
